The results in this text go back to patent US6500815B1, “Substituted 11.beta steroid derivatives, method for preparing same and intermediates of said method, use as medicine and compositions containing them” (Aventis Pharma S.A., priority 1999, dated 2002).

The test has as its target αvβ3 human receptor (vitronectin receptor) (Homo sapiens, UniProt P05106+P06756). The test is described as follows: Competition binding test: displacement of the vitronectin/vitronectin receptor (αvβ3) bond. Conditions: human vitronectin coated at 2 μg/ml, 3 hours incubation at ambient temperature, 4B12-HRP antibody detection, OD 450 nm, read-out: Competition binding test Vn/VnR (αvβ3) IC50. The method, then:
1—Study by the Products of the Invention of the Bond Displacement: Vitronectin/Vitronectin Receptor (αvβ3) Protocol 96 well MaxiSorp plates are coated overnight at 4° C., with 100 μl of human vitronectin (cf Yatohgo et al. Cell., Structure and fraction 13: 281-292 (1988) at 2 μg/ml, (dilution in coating buffer).
The following day, the wells are emptied and the ligands (vitronectin) are then fixed (see fixation buffer) for 1 hour at ambient temperature under gentle agitation. The wells are washed six times (see washing buffer), then per well and in this order the following are added:
40 μl of incubation buffer, 10 μl of the diluted product to be tested, (the products are diluted in a 50/50 mixture of DMSO-H2O) 20 μl of αvβ3 human receptor (cf Pytela et al. Methods Enzymol (1987) 144:475) (dilution in incubation buffer, to be adapted according to the batch of receptor and according to the ligand).
The ligand, the αvβ3 human receptor and the products to be studied are incubated for 3 hours at ambient temperature under gentle agitation.
The wells are again washed six times, then incubated for 2 hours at ambient temperature under gentle agitation, in the presence of 100 μl of 4B12-HRP antibody, anti-receptor coupled to a peroxydase (the 4B12-HRP antibody is diluted in incubation buffer. The dilution is to be adapted according to the batch of receptor).
The wells are then washed six times before measurement of the ligand-receptor bond done by the intermediate of a peroxydase visualizing kit (TMP Microwell Peroxydase Substrate System Kirkegaard: Ref. cat. 50-76-00). This kit contains a flask A of substrate (3,3′,5,5′-tetra-methylbenzidine at 0.4 g/l) and a flask B (H2O2 at 0.02% in Citrate/Citric acid buffer). Extemporaneously, a volume of A is mixed with a volume of B, then the reaction mixture is distributed at a rate of 100 μl/wells. The enzymatic reaction develops in 12′ for Vitronectin/αvβ3, and then its evolution is stopped by the addition of 100 μl of 1M phosphoric acid.
The optical density is measured at 450 nm. […]
coating buffer: 0.05 M carbonate, NaOH pH 9.6 fixation buffer: PBS containing 0.5% of BSA (pH 7.4) washing buffer: PBS containing 0.05% of Tween 20 (pH 7.4)
Expression of the Results: the following curve is drawn: the bonding percentage of human vitronectin as a function of the logarithm of the concentration of each product tested. For each product the IC50 is determined according to the following formula:
BO=Maximum bond in the absence of any product
Bmin=Minimum bond in the presence of the highest concentration of the product.

Take `CC12CC(CCCCC(NC(=O)OCc3ccccc3)C(=O)O)C3=C4CCC(=NNC5=NCCN5)C=C4CCC3C1CCC2O` (stereo not drawn) [Example 3, 3-[(4,5-Dihydro-1H-imidazol-2-yl)hydrazono]-17-hydroxy-alpha.-[[(phenylmethoxy)carbonyl]amino]-estra-4,9-diene-11-beta-hexanoic Acid]: the IC50 was 70 nM.

Consider `C[C@]12C[C@H](CCCCCC(=O)O)C3=C4CC/C(=N/NC(=N)N)C=C4CC[C@H]3[C@@H]1CCC2=O` [Example 5b ΔZ, 3-[(Amino-iminomethyl)hydrazono]-17-oxo-estra-4,9-diene-11-beta-hexanoic Acid], for which the IC50 came to 375 nM.

On to `C[C@]12C[C@H](CCCCCC(=O)O)C3=C4CCC(=NNC(=N)N)C(Cl)=C4CC[C@H]3[C@@H]1CCC2=O` [Example 9, 3-[(Aminoiminomethyl)hydrazono]-4-chloro-17-oxo-estra-4,9-diene-11-beta-hexanoic Acid], for which the IC50 was 1950 nM.

On to `C[C@]12C[C@H](CCCCCC(=O)O)C3=C4CCC(=NNC5=NCCN5)C=C4CC[C@H]3[C@@H]1CCC2=O` (mixture of isomers) [Example 7, 3-[(4,5-Dihydro-1H-imidazol-2-yl)-hydrazono]-17-oxo-estra-4,9-diene-11-beta-hexanoic Acid], for which the IC50 was determined as 25 nM.

For the compound `C[C@]12C[C@H](CCCCCC(=O)O)C3=C4CCC(=NNC5=NCCCN5)C=C4CC[C@H]3[C@@H]1CCC2=O` (mixture of isomers) [Example 6a 90/10, 3-[(1,4,5,6-Tetrahydro-2-pyrimidinyl)-hydrazono]-17-oxo-4,9-diene-11-beta-hexanoic Acid], the IC50 is 20 nM.

Regarding `C[C@]12C[C@H](CCCCCC(=O)O)C3=C4CCC(=NNC5=NCCN5)C(Cl)=C4CC[C@H]3[C@@H]1CCC2=O` [Example 8, 4-Chloro-3-[(4,5-dihydro-1H-imidazol-2-yl)hydrazono]-17-oxo-estra-4,9-diene-11-beta-hexanoic Acid], the IC50 worked out at 17 nM.

Regarding `C[C@]12C[C@H](CCCCC(NC(=O)OCc3ccccc3)C(=O)O)C3=C4CCC(=NNC5=NCCN5)C=C4CC[C@H]3[C@@H]1CCC2=O` (mixture of isomers) [Example 2, 3-[(4,5-Dihydro-1H-imidazol-2-yl)hydrazono]-17-oxo-α-[[(phenylmethoxy)carbonyl]amino]-estra-4,9-diene-11-beta-hexanoic Acid], the IC50 is 30 nM.

On to `C[C@]12C[C@H](CCCCC(=O)O)C3=C4CCC(=NNC(=N)N)C=C4CC[C@H]3[C@@H]1CCC2=O` (mixture of isomers) [Example 4, 3-[(Amino-iminomethyl)hydrazono]-17-oxoestra-4,9-dien-11-beta-pentanoic Acid], for which the IC50 was 133 nM.

`C[C@]12C[C@H](CCCCCC(=O)O)C3=C4CCC(=NNC5=NCCCN5)C=C4CC[C@H]3[C@@H]1CCC2=O` (mixture of isomers) [Example 6b 60/40, 3-[(1,4,5,6-Tetrahydro-2-pyrimidinyl)-hydrazono]-17-oxo-4,9-diene-11-beta-hexanoic Acid]: the IC50 amounted to 38 nM.

`C[C@]12C[C@H](CCCCCC(=O)O)C3=C4CC/C(=N\NC(=N)N)C=C4CC[C@H]3[C@@H]1CCC2=O` [Example 5a ΔE, 3-[(Amino-iminomethyl)hydrazono]-17-oxo-estra-4,9-diene-11-beta-hexanoic Acid]: the IC50 was 54 nM.
